# Results: paper PMC11964921 (npj Drug Discovery, 2025)
# Legend:
# [1] = tested on: M. tuberculosis H37Rv-ΔcydAB; parameters: species or system mouse (Balb/cBy); conditions: mouse, in vivo
# [2] = tested on: M. tuberculosis multi-drug-resistant clinical strains; assay: microbe, parasite or virus in culture; type: cell-based; conditions: for MIC: Mycobacterium tuberculosis
compound,measurement,setting,value
CCc1nc2ccc(Cl)cn2c1C(=O)NCc1ccc(C2CC3(C2)CN(S(=O)(=O)C(F)(F)F)C3)cc1 [JNJ-2901],reduction in bacterial burden / lung CFU,[1],4 log
same,MIC,[2]; all 18 clinical strains,< 1 nM
same,MIC,"[2]; all 18 clinical strains, Middlebrook 7H9 medium",≤ 0.5 ng/mL
same,MIC,"[2]; strain 661706043123, resistant to INH, PAS",≤ 0.5 ng/mL
same,MIC,"[2]; strain 661710016056, resistant to INH, S, PAS",≤ 0.5 ng/mL
same,MIC,"[2]; strain 661904036200, resistant to INH, PAS",≤ 0.5 ng/mL
same,MIC,"[2]; strain 661906047849, resistant to INH, RIF, S, PZA, ETH, PAS, EMB, CYC",≤ 0.5 ng/mL
same,MIC,"[2]; strain 661907010966, resistant to INH, RIF, S, PAS, EMB, PZA, CYC, AMK, KAN, CAP, ETH",≤ 0.5 ng/mL
same,MIC,"[2]; strain 661908012994, resistant to INH, RIF, S, PZA, PAS, ETH",≤ 0.5 ng/mL
same,MIC,"[2]; strain 661911031781, resistant to INH, RIF, S, PAS, CYC, ETH, KAN",≤ 0.5 ng/mL
same,MIC,"[2]; strain 661911038007, resistant to INH, RIF, S, PAS",≤ 0.5 ng/mL
same,MIC,"[2]; strain 662001006107, resistant to INH, RIF, PZA, S, PAS, CYC, ETH, FQL",≤ 0.5 ng/mL
same,MIC,"[2]; strain 662001039167, resistant to INH, RIF, S, PAS, EMB, PZA, CYC, KAN",≤ 0.5 ng/mL
same,MIC,"[2]; strain 662001071666, resistant to INH, RIF, S, PAS, PZA, EMB, ETH",≤ 0.5 ng/mL
same,MIC,"[2]; strain 662003052840, resistant to INH, EMB, PZA, S, CYC, PAS, ETH",≤ 0.5 ng/mL
same,MIC,"[2]; strain 662004032055, resistant to INH, RIF, S, PAS, ETH",≤ 0.5 ng/mL
same,MIC,"[2]; strain 662008015398, resistant to INH, RIF, S, PAS, EMB, PZA, ETH",≤ 0.5 ng/mL
same,MIC,"[2]; strain 662012006551, resistant to INH, PAS, PZA, ETH (LNZ geno)",≤ 0.5 ng/mL
same,MIC,"[2]; strain 662101040833, resistant to INH, RIF, PZA, S, PAS, EMB, ETH, KAN, CAP, AMK, CYC",≤ 0.5 ng/mL
same,MIC,"[2]; strain 662105041666, resistant to INH, RIF, S, PZA, EMB, FQL, ETH, CYC, PAS",≤ 0.5 ng/mL
same,MIC,"[2]; strain 662108038389, resistant to INH, RIF, S, PAS",≤ 0.5 ng/mL
same,concentration of growth inhibition (in words),[2]; clinical multidrug-resistant M. tuberculosis strains,sub-nanomolar
